Results taken from patent US20220260587A1, “METHOD” (Worg Pharmaceuticals (Hangzhou) Co., Ltd., priority 2019, published 2022).
Blank lines part the entries; values can stand above or below the substance they belong to.

Assays:
[1] = biological target: MHCII (HLA-DR2) with bound CLIP (MHCII-CLIP) (Homo sapiens, UniProt P01903+P01911); experiment: CLIP displacement assay; format: cell-based; conditions: MBP-specific T cell line 24 hours
Experimental: Response of MBP-specific T cell line to HLA-DR2 monomers following peptide exchange. Biotinylated HLA-DR2 (DRB1*1501) monomers, with the CLIP peptide bound, were attached to neutravidin coated 96 well plates. Wells were incubated with the indicated concentration of MBP 83-99, a dominant HLA-DR2 restricted epitope of MBP, for 16 hours and the plates washed. Control wells were coated with the DR2 monomer pre-loaded with the MBP 83-99 peptide. A T cell line specific for MBP was incubated with the monomers at 37° C. for 24 hours and response assessed by measurement of secreted IL-2.
MHCII (HLA-DR2) with bound CLIP (MHCII-CLIP) was affixed to wells of a 96-well plate using neutravidin and biotin. In particular, 96-well plates were coated with 15 μg/ml neutravidin in PBS overnight at 4° C. Plates were washed twice with wash buffer (0.1% BSA/PBS) and blocked with 1% BSA in PBS for 2 hours at room temperature. Plates were washed twice with wash buffer and 0.125 μg/ml of biotin-MHCII-CLIP in PBS was added for a 2-hour incubation at room temperature in a humid atmosphere. Plates were washed 4 times with wash buffer, leaving wells coated in MHCII-CLIP. Positive control wells were coated with MHCII with bound MBP 83-99 (instead of CLIP). […]
T cell activation was assessed by measuring secreted IL2.

MHCII on dendritic cells = experiment: In vivo MHCII loading assay; design: species or system HLA-DRtg mice; conditions: for CD4+ T cell activation (IFNγ) by dendritic cells loaded in vivo: 100 μg peptide subcutaneously, spleen CD11c+ cells 2 hours post injection, co-culture 72 hours, FIG. 4
Experimental: Response of peptide-specific CD4^+ T cells towards peptide loaded in vivo on dendritic cells. […] 2 h post injection, spleens were dissected and CD11c^+ cells (dendritic cells) were isolated. These CD11c^+ cells were co-cultured with peptide-specific CD4+ cells for 72 h at 37° C. IFNγ was measured in the supernatant of these cultures to evaluate the response to peptide by the CD4^+ T cells.
In particular, HLA-DRtg mice were injected with 100 μg of peptide in 100 μl PBS subcutaneously in the flank. Control animals received a subcutaneous injection of 100 μl PBS. After 2 hours, spleens were harvested and single-cell suspensions were made. CD11c^+ cells (splenic dendritic cells) were positively selected using CD11c microbeads according to the manufacturer's instructions (Miltenyi Biotec, Bergisch Gladbach, Germany). Average purities of >92% were reached.
1×10^5 CD11c^+ cells were co-cultured with 1×10^5 CD4^+ cells (primary T cells) in round bottom 96-well plates in X-vivo 15 medium (supplemented with 2 mM L-glutamine, 50 U/mL penicillin and 50 U/mL streptomycin; Lonza). The CD4^+ cells were isolated from HLA-DRtg mice that were immunised subcutaneously in the base of the tail with 50 μg peptide emulsified in CFA (peptide/CFA). Ten days after immunisation, draining lymph nodes (LN) and spleens were harvested. LN cells and splenocytes were isolated and CD4^+ T cells were isolated by negative selection using Magnisort Mouse CD4 Isolation kit (ThermoFisher Scientific) according to the manufacturer's instructions.
After 72 hours, supernatant of the CD11c^+-CD4^+ co-cultures was collected. CD4^+ T cell activation was analysed by IFNγ ELISA (R&D Systems, Abingdon, UK). In a parallel experiment, CD4^+ T cell responses towards peptide added in vitro were assessed to make sure the T cells recognize the peptides presented by the CD11c^+ cells.

MHCII = conditions: test peptides of the competition assay; cited from earlier work
[2] = system: response to protein antigen (SAg) in lymph node and spleen cells; experiment: Ex vivo tolerance assay; format: in vivo, HLA-DR transgenic mice; conditions: dose-escalating subcutaneous injections (0,1; 1; 10 and 3×100 μg), IFNg response to SAg, FIG. 5
Experimental: Response to protein antigen in lymph nodes (A) and spleens (B) of peptide-treated and non-treated mice. HLA-DR transgenic mice were treated with a dose-escalating regime of subcutaneous injections (0,1; 1; 10 and 3×100 μg every other day) of a tolerogenic (peptide Q) or non-tolerogenic (peptide P) peptide, or control injections (PBS). Afterwards, mice were immunized with peptide antigen in CFA and 10 days later, lymph nodes and spleens were dissected. Lymph node and spleen cells were cultured in vitro for 3 days at 37° C. in the presence of protein antigen (SAg) or positive control (PPD). The response of the cells towards the protein antigen was evaluated by measuring IFNg levels in supernatant of the cultures. *p<0.05
HLA-DRtg mice were injected subcutaneously in the flank region with 0.1 μg, 1 μg and 10 μg of peptide on days −15, −13 and −11 respectively, followed by 3 injections of 100 μg peptide on days −8, −6 and −4 (dose escalation schedule). On day 0, the mice were immunised subcutaneously in the base of the tail with 50 μg antigen (parental peptide) emulsified in CFA (peptide/CFA).
Ten days after immunisation, draining lymph nodes (LN) and spleens were harvested. […]
IFNγ concentrations in supernatants were assessed by cytokine ELISA (R&D Systems, Abingdon, UK) and cell activation was measured.

EAE = conditions: cited from earlier work

Chain of MHCII (HLA-DR2) with bound CLIP (MHCII-CLIP) (P01903 26-254): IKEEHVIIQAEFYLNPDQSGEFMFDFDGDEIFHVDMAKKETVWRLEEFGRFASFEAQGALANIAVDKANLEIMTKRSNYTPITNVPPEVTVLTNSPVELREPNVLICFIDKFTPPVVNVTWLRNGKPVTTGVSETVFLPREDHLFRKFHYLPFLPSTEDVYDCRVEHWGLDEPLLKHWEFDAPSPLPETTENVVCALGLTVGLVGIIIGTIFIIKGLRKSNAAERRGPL
Chain of MHCII (HLA-DR2) with bound CLIP (MHCII-CLIP) (P01911 30-227 limits assumed): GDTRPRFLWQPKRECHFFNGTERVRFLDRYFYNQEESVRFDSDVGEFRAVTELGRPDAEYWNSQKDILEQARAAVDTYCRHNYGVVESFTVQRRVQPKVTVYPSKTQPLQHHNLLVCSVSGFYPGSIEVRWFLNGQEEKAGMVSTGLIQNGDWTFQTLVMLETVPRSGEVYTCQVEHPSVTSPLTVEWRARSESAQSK

- T cell activation (secreted IL2) ([1]; MBP 83-99 at 3 μM added to MHCII-CLIP (CLIP monomer) for 16 hours): T cells are activated
- T cell activation (secreted IL2) ([1]; MBP 83-99 at 30 μM added to MHCII-CLIP (CLIP monomer) for 16 hours): T cells are activated
Substance: ENPVVHFFKNIVTPRIP [MBP 83-99]

Substance: GILVSYQIKVK (H-GILVSYQIKVK-NH2) [Peptide N]
- CD4+ T cell activation (IFNγ) by dendritic cells loaded in vivo (MHCII on dendritic cells): did not cause T cell activation
- HLA-DR binding (MHCII on dendritic cells; designation in legend of FIG. 4): HLA-DR non-binding

Substance: GLKMFPDLTKVYSTD (H-GLKMFPDLTKVYSTD-NH2) [Peptide L]
- affinity for MHCII (known) (MHCII): good affinity

Substance: KKEIFKKISRDKSVTIYLEKK (H-KKEIFKKISRDKSVTIYLEKK-NH2) [Peptide M]
- affinity for MHCII (known) (MHCII): poor affinity

Substance: KKIFKKISRDKSVTIYLKK (H-KKIFKKISRDKSVTIYLKK-NH2) [Peptide P]
- tolerogenicity [2]: non-tolerogenic

Substance: KKKGILVSYQIKVKKKK (H-KKKGILVSYQIKVKKKK-NH2) [Peptide 0]
- CD4+ T cell activation (IFNγ) by dendritic cells loaded in vivo (MHCII on dendritic cells): did

Substance: KKKIFKKISRDKSVTIYLKKK (H-KKKIFKKISRDKSVTIYLKKK-NH2) [Peptide Q]
- tolerogenicity [2]: tolerogenic

Substance: LILLPLLANNRERRGIALDGKIKHEDTNLASSTIIKEG [Peptide K]
- affinity for MHCII (known) (MHCII): poor affinity

Substance: MBP peptide 89-101: myelin basic protein (MBP) peptide 89-101, immunodominant antigen after immunisation (PHLIRLFSRDAPG; UniProt P02686 89-101, looked up, fragment)
- inducing tolerance (EAE; administered in solution): ineffective
- immunogen: priming for T cell reactivity and induction of EAE (EAE; after immunisation): very effective immunogen

Substance: NPILLWQPIPVHTVPLSEDQ (H-NPILLWQPIPVHTVPLSEDQ-NH2) [Peptide J, reference compound]
- affinity for MHCII (known) (MHCII): good affinity
